Experimental findings from patent publication US11963962B2, “Platelet count-agnostic methods of treating myelofibrosis” (Sierra Oncology, Inc., priority 2018, dated 2024) are described below.

The experiment has as its system myelofibrosis. Kind of experiment: SIMPLIFY-1 Phase 3 trial: total symptom score (TSS) response at week 24. The experiment is classed as in vivo, human. The note with it: for TSS Responders / TSS proportion (Wilson 95% CI) / TSS Absolute risk difference (Newcombe 95% CI): SIMPLIFY 1, 24 weeks; for TSS Absolute risk difference (Newcombe 95% CI): MMB vs Control; for TSS response rate: SIMPLIFY 1, week 24. The procedure: In the SIMPLIFY-1 trial (NCT01969838), the efficacy and safety of MMB versus ruxolitinib (RUX) was studied in patients with myelofibrosis who were naïve to treatment with a JAK inhibitor and a platelet count of ≥50×10^9/L. Patients (N=432) with high risk or intermediate-2 risk or symptomatic intermediate-1 risk myelofibrosis received 24 weeks of treatment with 200 mg MMB once daily or 20 mg RUX twice a day (or per label), after which all patients could receive open-label momelotinib. […] The primary endpoint was a reduction by at least 35% in the spleen volume at 24 weeks compared with baseline.
FIG. 8A: SIMPLIFY-1 study of MMB in a first line population previously untreated with JAKi. For SIMPLIFY-1, the goal was non-inferiority over ruxolitinib (RUX) (MMB: N=215 subjects, and RUX: N=217 subjects). FIG. 8B: SIMPLIFY-2 study of second line population of anemic or thrombocytopenic subjects previously treated with RUX (red blood cell (RBC) transfusions on RUX=64%. RUX dose adjustment for: thrombocytopenia=21%; anemia/hematoma=35%). For SIMPLIFY-2, the goal was superiority over best available treatment (BAT) (MMB: N=104 subjects, and BAT: N=52 subjects). In both SIMPLIFY-1 and SIMPLIFY: Primary endpoint: >=35% reduction in spleen volume at 24 weeks. Secondary endpoints: Total symptom score (TSS) response at 24 weeks. Effects on RBC transfusion requirements.
The SIMPLIFY 1 clinical trial data was reanalyzed for subgroups of subjects having particular baseline platelet counts in the MMB versus RUX arms of the study.
Patient data was analyzed according to the following baseline platelet count (PLT) subgroups and in particular according to the threshold PLT of 150×10^9/L: 1) PLT<50×10^9/L; 2) 50×10^9/L≤PLT<100×10^9/L; 3) 100×10^9/L≤PLT<150×10^9/L. The reanalyzed data is presented in Table 13 (SIMPLIFY 1). Selected data is also illustrated in the following figures.

`Cl.N#CCNC(=O)c1ccc(-c2ccnc(Nc3ccc(N4CCOCC4)cc3)n2)cc1` [MMB, N-(cyanomethyl)-4-(2-(4-morpholinophenylamino)pyrimidin-4-yl)benzamide]: the “TSS Responders” value reads like this: (50 ≤ PLT < 100 ×10^9/L) 6; (100 ≤ PLT < 150 ×10^9/L) 7; (ITT) 60. Moreover, the “TSS proportion (Wilson 95% CI)” value runs as follows: (50 ≤ PLT < 100 ×10^9/L) 0.33; (100 ≤ PLT < 150 ×10^9/L) 0.24; (ITT) 0.28. The “TSS Absolute risk difference (Newcombe 95% CI)” value is, setting by setting: (50 ≤ PLT < 100 ×10^9/L) 0.12; (100 ≤ PLT < 150 ×10^9/L) −0.15; (ITT) −0.13. Moreover, the TSS response rate runs as follows: (ITT, all patients) 28%; (ITT, platelets 50-100 (subgroup 2)) 33%; (ITT, platelets 100-150 (subgroup 3)) 24%; (baseline TSS ≥ 6, all patients) 33%; (baseline TSS ≥ 6, platelets 50-100 (subgroup 2)) 36%; (baseline TSS ≥ 6, platelets 100-150 (subgroup 3)) 32%. Besides, the TSS response rate is, setting by setting: (baseline TSS ≥ 10, all patients) 33%; (baseline TSS ≥ 10, platelets 50-100 (subgroup 2)) 36%; (baseline TSS ≥ 10, platelets 100-150 (subgroup 3)) 32%. For the setting “SIMPLIFY-1, overall”, the “Total Symptom Score (TSS) response” value is 28.4%. Under “SIMPLIFY-1, MMB vs RUX”, the “TSS Noninferior Proportion Difference” value is given as 0.00 (−0.08, 0.08).
